The values below are quoted from earlier work in EP4005587B1, “PHARMACEUTICAL COMPOSITION FOR TREATING LEVODOPA-INDUCED DYSKINESIA OR FOR SUPPRESSING PROGRESSION THEREOF” (Peptron, Inc., priority 2019, dated 2026).

Data set [1] relates to MPTP mouse model for Parkinson's disease. The following applies: given daily for 7 days after treatment.
The conditions of data set [2]: compared to GLP-1-Tf.
Data set [3] relates to lesioned rats.

For the substance exendin-4, in data set [1], the neuro-protection result is “not effective”. For the same substance, the rotarod performance result in data set [2] is given as “improve rotarod performance”. In addition, the “acute effects of L-DOPA” value in data set [3] (lesioned rats) is “potentiated”. In data set [3] (rat, in vivo), the 6-OHDA induced damage result is “reduces 6-OHDA induced damage” and the LIDS entry is “progressive reduction”.
